From US6559148B1, “Use of P2Y purinoreceptor antagonist for the treatment of ischemia reperfusion” (Consiglio Nazionale delle Ricerche, priority 1998, dated 2003)
Entries after “also recorded” stand apart in the source; their conditions may differ.

Test system: Wistar albino adult male rats
Experiment: Transient global cerebral ischemia by 4-vessel occlusion (4-VO, Pulsinelli and Brierley method) for 30 minutes
Format: in vivo, rat
Details: 30 minutes global ischemia
Method: By way of non-limiting example of the present invention, some experimental examples are given herein that show the effectiveness of the compounds modulating P2 purinoceptors, and in particular Basilen Blue, in the reduction of mortality induced by global ischemia. In particular, for such analysis Wistar albino adult male rats weighting 220-250 g have been utilized. Basilen Blue was diluted in saline solution. After a 12 hour fast, transient cerebral ischemia was induced in the rats by the Pulsinelli and Brierley method (Stroke, 10:267-272, 1979). The animals were anesthetized with 2% halotane in a mixture of 30% O2 and 70% N2O. Both vertebral arteries were electrically cauterized and thin claps from Teflon were loosely and reversibly placed around the common carotid arteries. The animals were allowed to recover from anesthesia and kept one per cage, under standard conditions of humidity, temperature and light. The following day, the rats were submitted to a mild anesthesia always with halothane and the claps previously placed around the common carotid arteries were tightened to produce the occlusion of 4 vessels (4-VO) for 30 minutes (in 24 animals). The absence of locomotion activity, the loss of corneal and righting reflexes and the presence of paralytic mydriasis, which took place after 1-2 minutes from the carotid occlusion, were the criteria according to which the animals were considered ischemic and included in the study. The rectal temperature was monitored during the following recovery period and kept constant at a temperature between 36.5 and 37° C. until the rats recovered the locomotion activity and the thermal homeostasis. […]
Wistar albino male rats, having a mean weight of 220-250 g, treated with saline solution (controls) or Basilen Blue were submitted for 30 minutes to global cerebral ischemia, the whole as described previously. The mortality was then monitored for two days following the carotid occlusion in a total of 24 animals (11 controls and 13 treated with Basilen Blue). […]

Substance: Basilen Blue E-3G (Reactive Blue 2)
- neuronal damage to the hippocampus (neurons lost in CA1-CA2 sectors) (2 x 4,5 mg/kg i.p., vs saline controls): less severe
- mortality index compared to control group (2 x 4,5 mg/kg i.p., vs saline controls, p>0,05 as printed): significantly lower; also recorded: reduces the mortality
- animals died (mortality) within two days from the carotid occlusion (Basilen Blue 4,5 mg/kg i.p. 15 minutes before and 3 hours after carotid occlusion, control group 5 out of 11 died): 3 out of the 13
